Activity calls are given as the source filed them. The calls are words filed in the database; no cut-off is given here.
Tests used:
[1] = Immuno-modulation activity in human PBMC assessed as increase in cell proliferation at 10 uM after 48 hrs by MTT assay relative to control; type: functional
[2] = (§1) Immunomodulation-mediated anticancer activity against human MCF7 cells assessed as human PBMC-mediated inhibition of cancer cell viability at 10 uM pretreated with effector PBMC cells for 48 hrs followed by co-culturing of target cancer cells with PBMC at ratio of 1:2.5 to 1:20 and measured after 24 hrs by MTT assay; type: functional
[3] = (§2) Immunomodulation-mediated anticancer activity against human MCF7 cells assessed as human PBMC-mediated decrease in mitochondrial membrane potential at 10 uM pretreated with effector PBMC cells for 6 hrs followed by co-culturing of target cancer cells with PBMC at ratio of 1:10 for 24 hrs by rhodamine 123 staining based fluorometric analysis (reference value: 5%); type: functional
[4] = Immuno-modulation activity in human PBMC assessed as increase in IL-2 secretion at 10 uM after 48 hrs by ELISA relative to control; type: functional
[5] = Cytotoxicity against human MCF7 cells assessed as reduction in cell viability at 5 to 20 uM measured after 24 hrs by MTT assay relative to control; type: cell-based; settings: dose 5-20 µM, read-out: INH
A549 = test: as §1, with “A549” for “MCF7”, “1:10” for “1:2.5 to 1:20”, “[…] (reference value: 5%)” for “MTT assay”; type: functional
[6] = as §2, with “increase” for “decrease”, “ROS generation” for “mitochondrial membrane potential”, “48” for “6”, “6” for “24”, “DCFH-DA” for “rhodamine 123”, “7%)” for “5%)”; type: functional
[7] = Immuno-modulation activity in human PBMC assessed as increase in IFNgamma secretion at 10 uM after 48 hrs by ELISA relative to control; type: functional
[8] = (§3) Immunomodulation-mediated anticancer activity against human MCF7 cells assessed as human PBMC-mediated cell cycle arrest by measuring proportion of cells at S phase at 10 uM pretreated with effector PBMC cells for 48 hrs followed by co-culturing of target cancer cells with PBMC at ratio of 1:10 for 24 hrs by propidium iodide staining based flow cytometry (reference value: 19.6%); type: functional
PBMC = test: Immuno-modulation activity in human PBMC assessed as increase in cell proliferation at 20 uM after 48 hrs by MTT assay; type: functional, tissue-based
[9] = as §3, with “subbG1” for “S”, “4.8%)” for “19.6%)”; type: functional
[10] = as §1, with “1:10” for “1:2.5 to 1:20”, “assay (reference value: 5%)” for “assay”; type: functional
[11] = as §3, with “G0G1” for “S”, “64.6%)” for “19.6%)”; type: functional
[12] = as §3, with “measuring increase in” for “measuring”, “subG1” for “S”, “relative to control” for “(reference value: 19.6%)”; type: functional
[13] = as §3, with “G2M” for “S”, “10.5%)” for “19.6%)”; type: functional

Q: What does the source list for `COc1ccc(OC)c2c1OC(=O)CC[C@H](O)C2=O`?
A: Activity [1]: 92%; Activity [2]: <=70%; inhibition at 10 µM [3]: 66%; fold change (FC) [4]: 3; cytotoxicity at 24 h, up to 20 µM [5]: < 30%; inhibition at 10 µM (A549): 32%; Activity [6]: 79%; fold change (FC) [7]: 3; Activity [8]: 13.2%; Activity (PBMC): Active; Activity [9]: 28.4%; inhibition at 10 µM [10]: 67%; Activity [11]: 51.8%; fold change (FC) [12]: 5; Activity [13]: 59%
